Results taken from US20240415819A1, “MACROCYCLIC COMPOUNDS AS PROTEASOME SUBUNIT BETA TYPE-5 INHIBITORS” (Lead Discovery Center GmbH, priority 2021, published 2024).

Tests used:
[1] = system: A549 (human lung carcinoma cell line); assay: Glo assay of A549 cells (Table 3; ProteasomeGlo plating scheme); type: cell-based; conditions: Homo sapiens; A549 cells; read-out: PGLo A549
How it was run: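 IC50 values (nM) come from a cell-based chymotrypsin-like Proteasome-Glo luminescence assay. Compound exposure ran 105 min at 37° C.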

[2] = target: T1, β5 subunit of the human constitutive proteasome (CPS) (Homo sapiens, UniProt P28074); assay: β5 inhibition assay, human constitutive proteasome (Suc-LLVY-AMC); type: biochemical; conditions: IC50 class, Suc-LLVY-AMC substrate
T1 construct: purchased Boston Biochem E-360
Protocol: The enzymatic activity of the β5 subunit of the human constitutive proteasome (CPS) is analyzed. In another assay, which differs from the assay of the human constitutive proteasome only in using the human immunoproteasome (IPS) the enzymatic activity of the β5 subunit of the human immunoproteasome (IPS) is analyzed. […] Inhibition is indicated as IC50 [nM] (“-”=not measured).

[3] = system: MM1 S (B lymphoblast cell line); assay: 48 hr CTG viability assay, MM1S; type: cell-based; conditions: Homo sapiens, 48 hr CTG, read-out: MM1S IC50
How it was run: (§1)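 Growth inhibition by compound over 48 h; IC50 (nM) derived from duplicate CellTiter-Glo luminescence readings across 0.0015–10 uM.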

[4] = system: Hs 746T (human gastric carcinoma cell line); assay: 48 hr CTG viability assay, Hs 746T; type: cell-based; conditions: Hs746T, 48 hr CTG, read-out: Hs 746T IC50
How it was run: as §1

[5] = system: RPMI 8226 (B lymphocyte cell line, multiple myeloma); assay: 48 hr CTG viability assay, RPMI 8226; type: cell-based; conditions: Homo sapiens, RPMI-8226; 48 hr CTG; read-out: RPMI-8226 IC50
How it was run: as §1

[6] = target: T2, β5 subunit of the human immunoproteasome (IPS) (Homo sapiens, UniProt P28062); assay: β5 inhibition assay, human immunoproteasome (Suc-LLVY-AMC); type: biochemical; conditions: IC50 class, Suc-LLVY-AMC substrate
T2 construct: purchased Boston Biochem E-370
How it was run: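 Human immunoproteasome (1 nM final) was preincubated 10 min at RT with compound in 100 mM HEPES pH 7.5, 50 mM NaCl, 0.02% SDS, 1 mM DTT. Suc-LLVY-AMC (22.6 μM final) was then added for 4 h at RT in the dark. After stopping with 1 μM bortezomib, AMC fluorescence was read (ex 355/em 460 nm).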

Row | Structure (SMILES) | IC50 [1] [nM] | IC50 [2] [nM] | IC50 [3] [nM] | IC50 [4] [nM] | IC50 [5] [nM] | IC50 [6] [nM]
1 | Cc1ccc2cc1CNC(=O)[C@H](CCN1C[C@@H]3C[C@H]1CO3)NC(=O)[C@@H](NC(=O)Cc1cn3ccsc3n1)CC(=O)N1CCCC(CCO2)C1 [Compound 739, N-((9S,12S)-9-(2-((1S,4S)-2-oxa-5-azabicyclo[2.2.1]heptan-5-yl)ethyl)-5^4-methyl-8,11,14-trioxo-4-oxa-7,10-diaza-1(3,1)-piperidina-5(1,3)-benzenacyclotetradecaphane-12-yl)-2-(imidazo[2,1-b]thiazol-6-yl)acetamide] | < 100 | < 100 | < 100 | 100 to 500 | < 100 | < 100
2 | Cc1ccc2cc1CNC(=O)[C@H](CCc1ccccc1)NC(=O)[C@@H](NC(=O)C1CC3(CCC3)C1)CC(=O)N1CCCC(CCO2)C1 (stereo partly drawn) [Compound 631, N-((9S,12S)-5^4-methyl-8,11,14-trioxo-9-phenethyl-4-oxa-7,10-diaza-1(3,1)-piperidina-5(1,3)-benzenacyclotetradecaphane-12-yl)spiro[3.3]heptane-2-carboxamide] | < 100 | < 100 | < 100 | < 100 | < 100 | < 100
3 | Cc1ccc2cc1CNC(=O)[C@H](CCc1cccnc1)NC(=O)[C@@H](NC(=O)Cc1ccc(N)cc1C)CC(=O)N1CCCC(CCO2)C1 (stereo partly drawn) [Compound 645, 2-(4-amino-2-methylphenyl)-N-((9S,12S)-5^4-methyl-8,11,14-trioxo-9-(2-(pyridin-3-yl)ethyl)-4-oxa-7,10-diaza-1(3,1)-piperidina-5(1,3)-benzenacyclotetradecaphane-12-yl)acetamide] | < 100 | < 100 | < 100 | < 100 | < 100 | < 100
4 | Cc1ccc2cc1CNC(=O)[C@H](CCc1ccccc1)NC(=O)[C@@H](NC(=O)CCNCCC1CC3CCC1C3)CC(=O)N1CCCC(CCO2)C1 (stereo partly drawn) [Compound 698, 3-((2-(bicyclo[2.2.1]heptan-2-yl)ethyl)amino)-N-((9S,12S)-5^4-methyl-8,11,14-trioxo-9-phenethyl-4-oxa-7,10-diaza-1(3,1)-piperidina-5(1,3)-benzenacyclotetradecaphane-12-yl)propanamide] | < 100 | < 100 | < 100 | < 100 | < 100 | < 100
5 | Cc1ccc2cc1CNC(=O)[C@H](CCc1ccccc1)NC(=O)[C@@H](NC(=O)CCNCC1CCC1)CC(=O)N1CCCC(CCO2)C1 (stereo partly drawn) [Compound 674, 3-((cyclobutylmethyl)amino)-N-((9S,12S)-5^4-methyl-8,11,14-trioxo-9-phenethyl-4-oxa-7,10-diaza-1(3,1)-piperidina-5(1,3)-benzenacyclotetradecaphane-12-yl)propanamide] | < 100 | < 100 | < 100 | < 100 | < 100 | < 100
6 | Cc1ccc2cc1CNC(=O)[C@H](CCc1ccccc1)NC(=O)[C@@H](NC(=O)CCNC1CCC1)CC(=O)N1CCCC(CCO2)C1 (stereo partly drawn) [Compound 680, 3-(cyclobutylamino)-N-((9S,12S)-5^4-methyl-8,11,14-trioxo-9-phenethyl-4-oxa-7,10-diaza-1(3,1)-piperidina-5(1,3)-benzenacyclotetradecaphane-12-yl)propanamide] | < 100 | < 100 | < 100 | < 100 | < 100 | < 100
7 | COc1cccc(CCOCCC(=O)N[C@H]2CC(=O)N3CCCC(CCOc4ccc(C)c(c4)CNC(=O)[C@H](CCc4ccccc4)NC2=O)C3)c1 (stereo partly drawn) [Compound 581, 3-(3-methoxyphenethoxy)-N-((9S,12S)-5^4-methyl-8,11,14-trioxo-9-phenethyl-4-oxa-7,10-diaza-1(3,1)-piperidina-5(1,3)-benzenacyclotetradecaphane-12-yl)propanamide] | < 100 | < 100 | < 100 | < 100 | < 100 | < 100
8 | Cc1ccc2cc1CNC(=O)[C@H](CCc1ccccc1)NC(=O)[C@@H](NS(=O)(=O)CC(F)(F)F)CC(=O)N1CCCC(CCO2)C1 (stereo partly drawn) [Compound 601, 2,2,2-trifluoro-N-((9S,12S)-5^4-methyl-8,11,14-trioxo-9-phenethyl-4-oxa-7,10-diaza-1(3,1)-piperidina-5(1,3)-benzenacyclotetradecaphane-12-yl)ethane-1-sulfonamide] | < 100 | < 100 | < 100 | < 100 | < 100 | < 100
9 | Cc1ccc2cc1CNC(=O)[C@H](CCc1ccccc1)NC(=O)[C@@H](NC(=O)CCNCc1ccc(N3CCN(Cc4ccccc4)CC3)cc1)CC(=O)N1CCCC(CCO2)C1 (stereo partly drawn) [Compound 699, 3-((4-(4-benzylpiperazin-1-yl)benzyl)amino)-N-((9S,12S)-5^4-methyl-8,11,14-trioxo-9-phenethyl-4-oxa-7,10-diaza-1(3,1)-piperidina-5(1,3)-benzenacyclotetradecaphane-12-yl)propanamide] | < 100 | < 100 | < 100 | < 100 | < 100 | < 100
10 | Cc1ccc2cc1CNC(=O)[C@H](CCc1ccccc1)NC(=O)[C@@H](NC(=O)N1CCCc3cc(N)ccc31)CC(=O)N1CCCC(CCO2)C1 (stereo partly drawn) [Compound 667, 6-amino-N-((9S,12S)-5^4-methyl-8,11,14-trioxo-9-phenethyl-4-oxa-7,10-diaza-1(3,1)-piperidina-5(1,3)-benzenacyclotetradecaphane-12-yl)-3,4-dihydroquinoline-1(2H)-carboxamide] | < 100 | < 100 | < 100 | < 100 | < 100 | < 100
11 | CCN1CCN(C(=O)N[C@H]2CC(=O)N3CCCC(CCOc4ccc(C)c(c4)CNC(=O)[C@H](CCc4ccccc4)NC2=O)C3)CC1 (stereo partly drawn) [Compound 688, 4-ethyl-N-((9S,12S)-5^4-methyl-8,11,14-trioxo-9-phenethyl-4-oxa-7,10-diaza-1(3,1)-piperidina-5(1,3)-benzenacyclotetradecaphane-12-yl)piperazine-1-carboxamide] | < 100 | < 100 | < 100 | < 100 | < 100 | < 100
12 | Cc1ccc2cc1CNC(=O)[C@H](CCc1ccccc1)NC(=O)[C@@H](NC(=O)CCNC1CCCC1)CC(=O)N1CCCC(CCO2)C1 (stereo partly drawn) [Compound 675, 3-(cyclopentylamino)-N-((9S,12S)-5^4-methyl-8,11,14-trioxo-9-phenethyl-4-oxa-7,10-diaza-1(3,1)-piperidina-5(1,3)-benzenacyclotetradecaphane-12-yl)propanamide] | < 100 | < 100 | < 100 | < 100 | < 100 | < 100
13 | Cc1ccc2cc1CNC(=O)[C@H](CCc1ccccc1)NC(=O)[C@@H](NC(=O)Cc1ccccc1)CCNC(=O)N1CCCC(CCO2)C1 (stereo partly drawn) [Compound 653, N-((9S,12S)-5^4-methyl-8,11,16-trioxo-9-phenethyl-4-oxa-7,10,15-triaza-1(3,1)-piperidina-5(1,3)-benzenacyclohexadecaphane-12-yl)-2-phenylacetamide] | < 100 | < 100 | < 100 | < 100 | < 100 | < 100
14 | COc1ccccc1CCOCCC(=O)N[C@H]1CC(=O)N2CCCC(CCOc3ccc(C)c(c3)CNC(=O)[C@H](CCc3ccccc3)NC1=O)C2 (stereo partly drawn) [Compound 582, 3-(2-methoxyphenethoxy)-N-((9S,12S)-5^4-methyl-8,11,14-trioxo-9-phenethyl-4-oxa-7,10-diaza-1(3,1)-piperidina-5(1,3)-benzenacyclotetradecaphane-12-yl)propanamide] | < 100 | < 100 | < 100 | < 100 | < 100 | < 100
15 | Cc1ccc2cc1CNC(=O)[C@H](CCc1ccccc1)NC(=O)[C@@H](NC(=O)CCN1CCC3(CCOC3)C1)CC(=O)N1CCCC(CCO2)C1 (stereo partly drawn) [Compound 640, N-((9S,12S)-5^4-methyl-8,11,14-trioxo-9-phenethyl-4-oxa-7,10-diaza-1(3,1)-piperidina-5(1,3)-benzenacyclotetradecaphane-12-yl)-3-(2-oxa-7-azaspiro[4.4]nonan-7-yl)propanamide] | < 100 | < 100 | < 100 | < 100 | < 100 | < 100
